In data set [1] the test system is MCF-7 (breast cancer cell). Kind of data set: MTT antiproliferative assay (cell growth %, GI50), MCF-7. It counts as cell-based. To be noted: for activity at 4000 µg/mL: 4 mg/ml; for activity at 4000 µg/mL / activity at 20000 µg/mL: 48 hours, MTT; for activity at 20000 µg/mL: 20 mg/ml. How it is done: (§1) Antiproliferative activities of the compounds of this invention were evaluated substantially according to the method as described in Tseng, C. […] The cells were treated with the test compounds, i.e., the compounds of this invention (in dimethylsulfoxide (DMSO)), or DMSO for 48 hours.
(§2) Before and after the treatment with the test compounds or DMSO, 3-(4,5-dimethylthiazol-2-yl)-2,5-diphenyltetrazolium bromide (MTT, 2 mg/mL, 100 μL) was added to each of the cultures, followed by cultivation for 2 hours. The resultant formazan was dissolved by the addition of DMSO. Absorbance at 570 nm (OD570) was measured using a microtiter plate reader (Dynex MRX-II).
(§3) Determination of GI50 was conducted thrice for each test compound. GI50 is expressed as mean±SD.

Data set [2] concerns NCI-H460 (non-small cell lung carcinoma cell). In words: MTT antiproliferative assay (cell growth %, GI50), NCI-H460. The data set is classed as cell-based. To be noted: for activity at 4000 µg/mL: 4 mg/ml; for activity at 4000 µg/mL / activity at 20000 µg/mL: 48 hours, MTT; for activity at 20000 µg/mL: 20 mg/ml. How it is done:
as §1, §2, §3
On the technique in general: Tetrazolium assays rely on reduction of a dye to a coloured formazan, in cell work by metabolically active cells.

Data set [3] can be described thus: Determination of solubility in water. The note with it: 25±0.1° C., stirred overnight, UV-VIS; for solubility: water, 25 °C, thermodynamic from solid. It counts as physicochemical. How it is done: Determination of solubility in water was conducted substantially according to the method as described in Vougogiannopoulou, K. et al. (2008), J. Med. Chem., 51:6421-6431. An excess amount of the respective test compound was added into water, followed by sonication for 5 minutes. The resultant mixture was stirred at ambient temperature (25±0.1° C.) overnight. Centrifugation at 4000 rpm and 25° C. was conducted for 5 minutes. Absorbance of the sample of the respective test compound was measured at 315-420 nm using a UV-VIS spectrophotometer (JASCO UV-Visible V570). For each test compound, a standard curve was generated by plotting concentrations of standard solutions and the corresponding absorbances. The absorbance of the sample of each test compound was then converted to solubility in water (μg/mL) using the corresponding standard curve.

Data set [4] in a line: Single-dose pharmacokinetic analysis in CD-1 mice. The data set is classed as in vivo. To be noted: for Bioavailability: oral 20 mg/kg versus intravenous 2 mg/kg. How it is done:
CD-1 mice were divided into two groups. The first group of mice (n=9) were used to assess the singe-dose pharmacokinetics of the test compounds after intravenous administration, and the second group of mice (n=9) were utilized to assess the singe-dose pharmacokinetics of the test compounds after oral administration. All of the mice were fasted from 4 hours before the administration of the test compounds until 4 hours after the administration of the test compounds.
The assessment for singe-dose pharmacokinetics of the test compounds after intravenous administration was performed as follows. The first group of mice were further randomly divided into three subgroups including compound 13a group (n=3), compound 14a group (n=3), and compound 1 group (n=3). Compounds 13a, 14a, 1 (in polyethylene glycol 400/ethanol/water (30/5/65, v/v/v)) were respectively administered to the mice in compound 13a group, compound 14a group, and compound 1 group at a dose of 2 mg/kg via tail vein injection. Blood samples (0.25 mL) were collected from the mice by virtue of cardiac puncture right before the intravenous administration, and at 2 min, 5 min, 15 min, 30 min, 1 hr, 1.5 hr, 2 hr, 4 hr, 6 hr, 9 hr, 24 hr, and 27 hr after the intravenous administration.
The assessment for singe-dose pharmacokinetics of the test compounds after oral administration was conducted as follows. The second group of mice were further randomly divided into three subgroups including compound 13a group (n=3), compound 14a group (n=3), and compound 1 group (n=3). Compounds 13a, 14a, 1 (in 0.5% methylcellulose) were respectively administered to the mice in compound 13a group, compound 14a group, and compound 1 group at a dose of 20 mg/kg via tube feeding. Blood samples (0.25 mL) were collected from the mice by virtue of cardiac puncture right before the oral administration, and at 15 min, 30 min, 1 hr, 1.5 hr, 2 hr, 4 hr, 6 hr, 9 hr, 24 hr, and 27 hr after the oral administration.
Each of the blood samples was placed in a 0.5 mL Microtainer® tube containing anticoagulant EDTA-K2, followed by mixing evenly. Centrifugation at 7000 g and 4° C. was conducted for 5 minutes. Plasma was collected and was mixed uniformly with a proper amount of acetonitrile, followed by centrifugation. The resultant supernatant was acquired, and was injected into a reversed-phase Biosil ODS column so as to determine the concentration of the respective test compound in plasma (i.e., the plasma concentration of the respective test compound) using a LC-MS/MS system (Waters 2795 LC and Micromass Quattro Ultima). The singe-dose pharmacokinetic parameters of the respective test compound were calculated from the obtained concentration of the respective test compound in plasma (i.e., the obtained plasma concentration of the respective compound) at different time points using WinNonlin Standard Program (version 3.1, Pharsight Corp.)

The conditions of data set [5]: in vitro anticancer assay, earlier work of the applicants; cited from earlier work.
For a further data set, the system named is tubulin. The note with it: Huang Y. T. et al. (2005); cited from earlier work.
The test system of data set [6] is SF-268 (central nervous system carcinoma cell). Kind of data set: MTT antiproliferative assay (cell growth %, GI50), SF-268. It counts as cell-based. How it is done: as §1, §2, §3
The subject of data set [7] is MRC-5 (human lung fibroblast cell). In words: GI50 determination on normal cell line MRC-5. The note with it: MRC5, normal cell line, mean±SD, read-out: GI50 MRC-5. It counts as cell-based. How it is done:
as §1, §2, §3

[8] abbreviates: intravenous administration, 2 mg/kg.
Where [9] appears, read: intravenous administration, 2 mg/kg, extrapolated plasma concentration at 0 hr.
The mark [10] stands for this setting: intravenous administration, 2 mg/kg, from 0.5-1.5 hr (compd. 1) or 9-27 hr (13a, 14a).
The mark [11] stands for this setting: oral administration, 20 mg/kg, from 2-6 hr (compd. 1), 2-24 hr (13a), 2-9 hr (14a).

Values after ≈ are worked out from the molar mass of the structure shown. Marks after values point to notes of the source that are not given here.

As a reminder, the solubility is the dissolved amount per volume that the medium holds. A word on the AUC(0-inf): it is the area under the concentration-time curve extrapolated to infinity. By MRT is commonly meant a mean duration of stay, worked out from the concentration-time curve. A word on the Vss: it is a proportionality between amount in the body and measured concentration, not a real space. Low values mean little distribution into tissue, high ones wide distribution into tissue. One may read the Vz as a proportionality between amount in the body and measured concentration, not a real space. A word on the Cmax: it is the peak of the concentration-time curve. In general, Tmax refers to the time at which the peak concentration occurs. Consider `CC(=O)c1ccc(Nc2c3ccccc3nc3occc23)cc1` [Compound 1, 1-(4-(furo[2,3-b]quinolin-4-ylamino)phenyl)ethanone, reference compound], for which, in data set [1] (Homo sapiens, MCF7), the activity at 4000 µg/mL was 69% and the activity at 20000 µg/mL turned out to be 61%. Further, in data set [2] (Homo sapiens, NCI-H460), the activity at 4000 µg/mL came out at 33% and the activity at 20000 µg/mL stood at 30%. Further, the solubility in data set [3] was 6 µg/mL (≈ 19.8 µM). In addition, in data set [4] (setting [8]), the “AUC(0-inf)” value was determined as 211 ng·h/mL, the CL was found to be 158 mL/min/kg, the MRT was 0.1 h and the “Time after which compound was unable to be detected in plasma” value (“Time after which compound was unable” below) stood at 1.5 h. Moreover, in data set [4] (setting [8]), the Vss was 1.2 L/kg and the Vz was found to be 4.1 L/kg. In addition, the Cmax in data set [4] (setting [9]) was 3064 ng/mL. In data set [4] (setting [10]), the t1/2 is given as 0.3^b hr. In data set [4], this compound returned a Bioavailability of 2.1%. Besides, in data set [4] (oral administration, 20 mg/kg), the “AUC(0-inf)” value was determined as 45 ng·h/mL, the Cmax turned out to be 21 ng/mL, the MRT worked out at 2.7 h and the “Time after which compound was unable” value amounted to 6 h. Moreover, the Tmax in data set [4] (oral administration, 20 mg/kg) is 0.3 h. Besides, the t1/2 in data set [4] (setting [11]) was 2.0^c hr. The “Antiproliferative potency compared with amsacrine (m-AMSA)” value in data set [5] is reported as “higher than that of amsacrine”. Besides, in the data set on tubulin, the Effect on tubulin result was “binding to tubulin and inhibiting tubulin polymerization”.
`C/C(=N\O)c1ccc(Nc2c3ccccc3nc3occc23)cc1` [Compound 2, (E)-1-(4-(furo[2,3-b]quinolin-4-ylamino)phenyl)ethanone oxime, reference compound]: the activity at 4000 µg/mL was determined as 64% in data set [1] (Homo sapiens, MCF7) and 27% in data set [2] (Homo sapiens, NCI-H460). The activity at 20000 µg/mL came to 58% in data set [1] (Homo sapiens, MCF7) and 21% in data set [2] (Homo sapiens, NCI-H460). This compound showed a solubility in data set [3] of 10 µg/mL (≈ 31.5 µM). The “Antiproliferative potency compared with amsacrine (m-AMSA)” value in data set [5] is reported as “comparable to that of amsacrine”.
With `CO/N=C(\C)c1ccc(Nc2c3ccccc3nc3occc23)cc1` [Compound 3, (E)-1-(4-(furo[2,3-b]quinolin-4-ylamino)phenyl)ethanone O-methyloxime, reference compound], in data set [1] (Homo sapiens, MCF7), the activity at 4000 µg/mL is 63% and the activity at 20000 µg/mL was 37%. For the same compound, in data set [2] (Homo sapiens, NCI-H460), the activity at 4000 µg/mL amounted to 51% and the activity at 20000 µg/mL amounted to 23%. In data set [3], this compound came in with a solubility of 8 µg/mL (≈ 24.1 µM). Moreover, in data set [5], the “Antiproliferative potency compared with amsacrine (m-AMSA)” value is “comparable to that of amsacrine”.
Take `C/C(=N\OCCN)c1ccc(Nc2c3ccccc3nc3occ(Cl)c23)cc1` [Compound 14a, (E)-1-(4-(3-Chlorofuro[2,3-b]quinolin-4-ylamino)phenyl)ethanone O-2-aminoethyl oxime]: the “SI MCF-7” value in data set [1] (GI50 MRC-5 / GI50 MCF-7) amounted to 1.52. In addition, in data set [1] (Homo sapiens, MCF7), the activity at 4000 µg/mL amounted to 59% and the activity at 20000 µg/mL was -1%. Besides, in data set [1] (Homo sapiens, MCF7, mean±SD, read-out: GI50 MCF-7), the GI50 amounted to 31.01 ± 0.03 µM. For the same compound, the “SI NCI-H460” value in data set [2] (GI50 MRC-5 / GI50 NCI-H460) turned out to be 66.25. In data set [2] (Homo sapiens, NCI-H460), the activity at 4000 µg/mL was 32% and the activity at 20000 µg/mL is -1%. In data set [2] (Homo sapiens, NCI-H460, mean±SD, read-out: GI50 NCI-H460), the GI50 came to 0.71 ± 0.02 µM. The “SI SF-268” value in data set [6] (GI50 MRC-5 / GI50 SF-268) was 5.15. Besides, the GI50 in data set [6] (Homo sapiens, SF-268, mean±SD, read-out: GI50 SF-268) stood at 9.14 ± 0.72 µM. In addition, the GI50 in data set [7] is 47 ± 1.21 µM. Besides, the Solubility in water in data set [3] turned out to be 25 µg/mL (≈ 63.3 µM). For the same compound, in data set [4] (setting [8]), the “AUC(0-inf)” value was 409.8 ng·h/mL, the CL was found to be 81.3 mL/min/kg, the MRT turned out to be 6.1 h and the Vss is given as 30.0 L/kg. This compound also displayed a Vz in data set [4] (setting [8]) of 103.8 L/kg. Further, the Cmax in data set [4] (setting [9]) was 3601 ng/mL. Further, the t1/2 in data set [4] (setting [10]) is listed as 14.7^d hr. For the same compound, in data set [4], the Bioavailability was 5.9%. In addition, in data set [4] (oral administration, 20 mg/kg), the area under the curve AUC(0-inf) was 242.6 ng·h/mL, the Cmax was found to be 114.3 ng/mL, the MRT stood at 2.8 h and the “Time after which compound was unable” value was determined as 9 h. In addition, the Tmax in data set [4] (oral administration, 20 mg/kg) stood at 1.0 h. Further, the t1/2 in data set [4] (setting [11]) is on record as 1.7^f hr.

The values above are taken from patent publication US8952033B2, “4-anilinofuro[2,3-b]quinoline derivatives, their preparation processes, and pharmaceutical compositions comprising the same” (Kaohsiung Medical University, priority 2011, dated 2015).
